Results taken from publication PMC11645656, “MRGPRX4 mediates phospho-drug associated pruritus in a humanized mouse model” (Science translational medicine, 2024).
Several values for one entry are separate records, joined by “and”; a condition that tells them apart may be missing. Equal values may be shown once.

System: MRGPRX4-expressing HEK293 cells (Gαq signaling pathway)
Experiment: Pharmacological blocker experiments: phospho-drug evoked calcium response in MRGPRX4-expressing HEK293 cells after inhibitor preincubation; note: test concentration or dose not given here

With O=C1NC(c2ccccc2)(c2ccccc2)C(=O)N1COP(=O)(O)O [Fosphenytoin] the “calcium response trace, fig. S2B” value (Time 0.8024 s, + Vehicle) was 1, the “calcium response trace, fig. S2B” value (Time 0.8024 s, + YM254890) was 1 and the “calcium response trace, fig. S2B” value (Time 3.296 s, + YM254890) was 1.0086. The “calcium response trace, fig. S2B” value (Time 5.8096 s, + YM254890) was 1.014, the “calcium response trace, fig. S2B” value (Time 8.3136 s, + YM254890) was 1.012 and the “calcium response trace, fig. S2B” value (Time 10.8264 s, + YM254890) was 1.017. For the same molecule, the “calcium response trace, fig. S2B” value (Time 13.3408 s, + YM254890) was 1.0091, the “calcium response trace, fig. S2B” value (Time 15.8536 s, + YM254890) was 1.017 and the “calcium response trace, fig. S2B” value (Time 18.3672 s, + YM254890) was 1.0038. The “calcium response trace, fig. S2B” value (Time 20.8808 s, + YM254890) was 1.022 and 1.026, the “calcium response trace, fig. S2B” value (Time 23.3848 s, + YM254890) was 1.023 and 1.0316 and the “calcium response trace, fig. S2B” value (Time 25.8984 s, + YM254890) was 1.028 and 1.035. The “calcium response trace, fig. S2B” value (Time 28.392 s, + YM254890) was 1.036 and 1.04, the “calcium response trace, fig. S2B” value (Time 30.8952 s, + YM254890) was 1.032 and 1.039 and the “calcium response trace, fig. S2B” value (Time 33.3896 s, + YM254890) was 1.039 and 1.042. The “calcium response trace, fig. S2B” value (Time 35.8728 s, + YM254890) was 1.035 and 1.045, the “calcium response trace, fig. S2B” value (Time 38.3656 s, + YM254890) was 1.038 and 1.049 and the “calcium response trace, fig. S2B” value (Time 40.86 s, + YM254890) was 1.038 and 1.045. For the same molecule, the “calcium response trace, fig. S2B” value (Time 43.3632 s, + YM254890) was 1.041 and 1.036, the “calcium response trace, fig. S2B” value (Time 45.8664 s, + YM254890) was 1.037 and 1.041 and the “calcium response trace, fig. S2B” value (Time 48.38 s, + YM254890) was 1.051 and 1.044. The “calcium response trace, fig. S2B” value (Time 50.8936 s, + YM254890) was 1.041 and 1.044, the “calcium response trace, fig. S2B” value (Time 53.4072 s, + YM254890) was 1.038 and 1.0407 and the “calcium response trace, fig. S2B” value (Time 55.9112 s, + YM254890) was 1.034 and 1.044. The “calcium response trace, fig. S2B” value (Time 58.4248 s, + YM254890) was 1.04 and 1.039, the “calcium response trace, fig. S2B” value (Time 60.9288 s, + YM254890) was 1.042 and 1.044 and the “calcium response trace, fig. S2B” value (Time 63.444 s, + YM254890) was 1.04 and 1.035. For the same molecule, the “calcium response trace, fig. S2B” value (Time 65.9256 s, + YM254890) was 1.037, the “calcium response trace, fig. S2B” value (Time 68.4192 s, + YM254890) was 1.036 and the “calcium response trace, fig. S2B” value (Time 70.9024 s, + YM254890) was 1.036. For the same molecule, the “calcium response trace, fig. S2B” value (Time 73.3864 s, + YM254890) was 1.029, the “calcium response trace, fig. S2B” value (Time 75.8896 s, + YM254890) was 1.034 and the “calcium response trace, fig. S2B” value (Time 78.3936 s, + YM254890) was 1.032. The “calcium response trace, fig. S2B” value (Time 80.9064 s, + YM254890) was 1.03, the “calcium response trace, fig. S2B” value (Time 83.4104 s, + YM254890) was 1.032 and the “calcium response trace, fig. S2B” value (Time 85.9136 s, + YM254890) was 1.031. For the same molecule, the “calcium response trace, fig. S2B” value (Time 88.4176 s, + YM254890) was 1.027, the “calcium response trace, fig. S2B” value (Time 90.9336 s, + YM254890) was 1.025 and the “calcium response trace, fig. S2B” value (Time 93.4144 s, + YM254890) was 1.031. For the same molecule, the “calcium response trace, fig. S2B” value (Time 95.908 s, + YM254890) was 1.026, the “calcium response trace, fig. S2B” value (Time 98.4016 s, + YM254890) was 1.025 and the “calcium response trace, fig. S2B” value (Time 100.895 s, + YM254890) was 1.029. For the same molecule, the “calcium response trace, fig. S2B” value (Time 103.389 s, + YM254890) was 1.027, the “calcium response trace, fig. S2B” value (Time 105.892 s, + YM254890) was 1.0264 and the “calcium response trace, fig. S2B” value (Time 108.406 s, + YM254890) was 1.031. For the same molecule, the “calcium response trace, fig. S2B” value (Time 110.9 s, + YM254890) was 1.026, the “calcium response trace, fig. S2B” value (Time 113.413 s, + YM254890) was 1.02 and the “calcium response trace, fig. S2B” value (Time 115.917 s, + YM254890) was 1.023. For the same molecule, the “calcium response trace, fig. S2B” value (Time 118.43 s, + YM254890) was 1.023, the “calcium response trace, fig. S2B” value (Time 120.934 s, + YM254890) was 1.021 and the “calcium response trace, fig. S2B” value (Time 123.45 s, + YM254890) was 1.02. For the same molecule, the “calcium response trace, fig. S2B” value (Time 125.93 s, + YM254890) was 1.014, the “calcium response trace, fig. S2B” value (Time 128.414 s, + YM254890) was 1.021 and the “calcium response trace, fig. S2B” value (Time 130.908 s, + YM254890) was 1.026. For the same molecule, the “calcium response trace, fig. S2B” value (Time 133.402 s, + YM254890) was 1.02, the “calcium response trace, fig. S2B” value (Time 135.905 s, + YM254890) was 1.011 and the “calcium response trace, fig. S2B” value (Time 138.41 s, + YM254890) was 1.019. For the same molecule, the “calcium response trace, fig. S2B” value (Time 140.942 s, + YM254890) was 1.016, the “calcium response trace, fig. S2B” value (Time 143.446 s, + YM254890) was 1.018 and the “calcium response trace, fig. S2B” value (Time 145.949 s, + YM254890) was 1.014. The “calcium response trace, fig. S2B” value (Time 148.465 s, + YM254890) was 1.02, the “calcium response trace, fig. S2B” value (Time 150.996 s, + YM254890) was 1.016 and the “calcium response trace, fig. S2B” value (Time 153.49 s, + YM254890) was 1.011. The “calcium response trace, fig. S2B” value (Time 156.003 s, + YM254890) was 1.016, the “calcium response trace, fig. S2B” value (Time 158.497 s, + YM254890) was 1.014 and the “calcium response trace, fig. S2B” value (Time 161 s, + YM254890) was 1.008. For the same molecule, the “calcium response trace, fig. S2B” value (Time 163.494 s, + YM254890) was 1.02, the “calcium response trace, fig. S2B” value (Time 165.987 s, + YM254890) was 1.0117 and the “calcium response trace, fig. S2B” value (Time 168.481 s, + YM254890) was 1.018. For the same molecule, the “calcium response trace, fig. S2B” value (Time 170.974 s, + YM254890) was 1.011, the “calcium response trace, fig. S2B” value (Time 173.488 s, + YM254890) was 1.015 and the “calcium response trace, fig. S2B” value (Time 175.991 s, + YM254890) was 1.0057. For the same molecule, the “calcium response trace, fig. S2B” value (Time 178.505 s, + YM254890) was 1.009, the “calcium response trace, fig. S2B” value (Time 181.018 s, + YM254890) was 1.011 and the “calcium response trace, fig. S2B” value (Time 183.532 s, + YM254890) was 1.014. The “calcium response trace, fig. S2B” value (Time 186.036 s, + YM254890) was 1.016, the “calcium response trace, fig. S2B” value (Time 188.549 s, + YM254890) was 1.014 and the “calcium response trace, fig. S2B” value (Time 191.053 s, + YM254890) was 1.017. For the same molecule, the “calcium response trace, fig. S2B” value (Time 193.556 s, + YM254890) was 1.013, the “calcium response trace, fig. S2B” value (Time 196.05 s, + YM254890) was 1.011 and the “calcium response trace, fig. S2B” value (Time 198.533 s, + YM254890) was 1.011.
